Laboratory results as given in patent US20220411422A1, “ERBB RECEPTOR INHIBITORS” (Dizal (Jiangsu) Pharmaceutical Co., Ltd., priority 2018, published 2022).
“Also recorded” adds a separate entry of the source.

Legend:
[1] = tested on: BT474 SC, BM and LM xenograft models; assay: In vivo anti-tumor potency in SC, BM and LM xenograft mouse models
[2] = Clinical study on safety in patients with HER2+ MBC; type: in vivo, human
Text: […] All patients had prior anti-HER2 antibody and chemotherapy treatment. Majority of patients ([…]) also had prior anti-HER2 small molecule treatment.

[3] = 100 mg (N = 4), CTCAE Grade All
[4] = 200 mg (N = 5), CTCAE Grade All
[5] = HER2+ MBC patients, oral twice daily, doses tested
[6] = Total (N = 14), CTCAE Grade All

SMILES: COc1cc(O[C@H]2CCN(C)CC2(F)F)c2c(Nc3ccc(Oc4ccn5ncnc5c4)c(C)c3)ncnc2c1 (single isomer, unassigned) [Compound 6]
- anti-tumor activity compared to Tucatinib, Neratinib and Pyrotinib ([1]; BM and LM models): superior to Tucatinib, Neratinib and Pyrotinib
- anti-tumor activity, monotherapy ([1]; BT474 SC, BM and LM xenograft models, 25-150 mg/kg): potent anti-tumor activity; also recorded: profound tumor regression
- anti-tumor activity compared to Tucatinib, Neratinib and Pyrotinib ([1]; SC model): comparable to them
- TEAE Anaemia, patients ([2]; 25 mg (N = 1), CTCAE Grade All): 0
- TEAE Aspartate aminotransferase increased, patients ([2]; 25 mg (N = 1), CTCAE Grade All): 0
- TEAE Bilirubin conjugated increased, patients ([2]; 25 mg (N = 1), CTCAE Grade All): 0
- TEAE Blood bilirubin increased, patients ([2]; 25 mg (N = 1), CTCAE Grade All): 1
- TEAE Blood bilirubin unconjugated increased, patients ([2]; 25 mg (N = 1), CTCAE Grade All): 1
- TEAE Blood creatinine increased, patients ([2]; 25 mg (N = 1), CTCAE Grade All): 0
- TEAE Fatigue, patients ([2]; 25 mg (N = 1), CTCAE Grade All): 0
- TEAE Haemoglobin decreased, patients ([2]; 25 mg (N = 1), CTCAE Grade All): 0
- TEAE Headache, patients ([2]; 25 mg (N = 1), CTCAE Grade All): 0
- TEAE Lipase increased, patients ([2]; 25 mg (N = 1), CTCAE Grade All): 0
- TEAE Pain, patients ([2]; 25 mg (N = 1), CTCAE Grade All): 0
- TEAE Platelet count decreased, patients ([2]; 25 mg (N = 1), CTCAE Grade All): 0
- TEAE Proteinuria, patients ([2]; 25 mg (N = 1), CTCAE Grade All): 0
- TEAE Vomiting, patients ([2]; 25 mg (N = 1), CTCAE Grade All): 0
- TEAE Anaemia, patients ([2]; 25 mg (N = 1), CTCAE Grade ≥3): 0
- TEAE Aspartate aminotransferase increased, patients ([2]; 25 mg (N = 1), CTCAE Grade ≥3): 0
- TEAE Bilirubin conjugated increased, patients ([2]; 25 mg (N = 1), CTCAE Grade ≥3): 0
- TEAE Blood bilirubin increased, patients ([2]; 25 mg (N = 1), CTCAE Grade ≥3): 0
- TEAE Blood bilirubin unconjugated increased, patients ([2]; 25 mg (N = 1), CTCAE Grade ≥3): 0
- TEAE Blood creatinine increased, patients ([2]; 25 mg (N = 1), CTCAE Grade ≥3): 0
- TEAE Fatigue, patients ([2]; 25 mg (N = 1), CTCAE Grade ≥3): 0
- TEAE Haemoglobin decreased, patients ([2]; 25 mg (N = 1), CTCAE Grade ≥3): 0
- TEAE Headache, patients ([2]; 25 mg (N = 1), CTCAE Grade ≥3): 0
- TEAE Lipase increased, patients ([2]; 25 mg (N = 1), CTCAE Grade ≥3): 0
- TEAE Pain, patients ([2]; 25 mg (N = 1), CTCAE Grade ≥3): 0
- TEAE Platelet count decreased, patients ([2]; 25 mg (N = 1), CTCAE Grade ≥3): 0
- TEAE Proteinuria, patients ([2]; 25 mg (N = 1), CTCAE Grade ≥3): 0
- TEAE Vomiting, patients ([2]; 25 mg (N = 1), CTCAE Grade ≥3): 0
- TEAE Anaemia, patients ([2]; 50 mg (N = 4), CTCAE Grade All): 1
- TEAE Aspartate aminotransferase increased, patients ([2]; 50 mg (N = 4), CTCAE Grade All): 1
- TEAE Bilirubin conjugated increased, patients ([2]; 50 mg (N = 4), CTCAE Grade All): 0
- TEAE Blood bilirubin increased, patients ([2]; 50 mg (N = 4), CTCAE Grade All): 0
- TEAE Blood bilirubin unconjugated increased, patients ([2]; 50 mg (N = 4), CTCAE Grade All): 0
- TEAE Blood creatinine increased, patients ([2]; 50 mg (N = 4), CTCAE Grade All): 1
- TEAE Fatigue, patients ([2]; 50 mg (N = 4), CTCAE Grade All): 0
- TEAE Haemoglobin decreased, patients ([2]; 50 mg (N = 4), CTCAE Grade All): 1
- TEAE Headache, patients ([2]; 50 mg (N = 4), CTCAE Grade All): 1
- TEAE Lipase increased, patients ([2]; 50 mg (N = 4), CTCAE Grade All): 2
- TEAE Pain, patients ([2]; 50 mg (N = 4), CTCAE Grade All): 1
- TEAE Platelet count decreased, patients ([2]; 50 mg (N = 4), CTCAE Grade All): 1
- TEAE Proteinuria, patients ([2]; 50 mg (N = 4), CTCAE Grade All): 1
- TEAE Vomiting, patients ([2]; 50 mg (N = 4), CTCAE Grade All): 0
- TEAE Anaemia, patients ([2]; 50 mg (N = 4), CTCAE Grade ≥3): 0
- TEAE Aspartate aminotransferase increased, patients ([2]; 50 mg (N = 4), CTCAE Grade ≥3): 0
- TEAE Bilirubin conjugated increased, patients ([2]; 50 mg (N = 4), CTCAE Grade ≥3): 0
- TEAE Blood bilirubin increased, patients ([2]; 50 mg (N = 4), CTCAE Grade ≥3): 0
- TEAE Blood bilirubin unconjugated increased, patients ([2]; 50 mg (N = 4), CTCAE Grade ≥3): 0
- TEAE Blood creatinine increased, patients ([2]; 50 mg (N = 4), CTCAE Grade ≥3): 0
- TEAE Fatigue, patients ([2]; 50 mg (N = 4), CTCAE Grade ≥3): 0
- TEAE Haemoglobin decreased, patients ([2]; 50 mg (N = 4), CTCAE Grade ≥3): 0
- TEAE Headache, patients ([2]; 50 mg (N = 4), CTCAE Grade ≥3): 0
- TEAE Lipase increased, patients ([2]; 50 mg (N = 4), CTCAE Grade ≥3): 0
- TEAE Pain, patients ([2]; 50 mg (N = 4), CTCAE Grade ≥3): 0
- TEAE Platelet count decreased, patients ([2]; 50 mg (N = 4), CTCAE Grade ≥3): 0
- TEAE Proteinuria, patients ([2]; 50 mg (N = 4), CTCAE Grade ≥3): 0
- TEAE Vomiting, patients ([2]; 50 mg (N = 4), CTCAE Grade ≥3): 0
- TEAE Anaemia, patients [2, 3]: 2
- TEAE Aspartate aminotransferase increased, patients [2, 3]: 0
- TEAE Bilirubin conjugated increased, patients [2, 3]: 0
- TEAE Blood bilirubin increased, patients [2, 3]: 0
- TEAE Blood bilirubin unconjugated increased, patients [2, 3]: 0
- TEAE Blood creatinine increased, patients [2, 3]: 0
- TEAE Fatigue, patients [2, 3]: 1
- TEAE Haemoglobin decreased, patients [2, 3]: 0
- TEAE Headache, patients [2, 3]: 2
- TEAE Lipase increased, patients [2, 3]: 0
- TEAE Pain, patients [2, 3]: 0
- TEAE Platelet count decreased, patients [2, 3]: 1
- TEAE Proteinuria, patients [2, 3]: 0
- TEAE Vomiting, patients [2, 3]: 1
- TEAE Anaemia, patients ([2]; 100 mg (N = 4), CTCAE Grade ≥3): 0
- TEAE Aspartate aminotransferase increased, patients ([2]; 100 mg (N = 4), CTCAE Grade ≥3): 0
- TEAE Bilirubin conjugated increased, patients ([2]; 100 mg (N = 4), CTCAE Grade ≥3): 0
- TEAE Blood bilirubin increased, patients ([2]; 100 mg (N = 4), CTCAE Grade ≥3): 0
- TEAE Blood bilirubin unconjugated increased, patients ([2]; 100 mg (N = 4), CTCAE Grade ≥3): 0
- TEAE Blood creatinine increased, patients ([2]; 100 mg (N = 4), CTCAE Grade ≥3): 0
- TEAE Fatigue, patients ([2]; 100 mg (N = 4), CTCAE Grade ≥3): 0
- TEAE Haemoglobin decreased, patients ([2]; 100 mg (N = 4), CTCAE Grade ≥3): 0
- TEAE Headache, patients ([2]; 100 mg (N = 4), CTCAE Grade ≥3): 0
- TEAE Lipase increased, patients ([2]; 100 mg (N = 4), CTCAE Grade ≥3): 0
- TEAE Pain, patients ([2]; 100 mg (N = 4), CTCAE Grade ≥3): 0
- TEAE Platelet count decreased, patients ([2]; 100 mg (N = 4), CTCAE Grade ≥3): 0
- TEAE Proteinuria, patients ([2]; 100 mg (N = 4), CTCAE Grade ≥3): 0
- TEAE Vomiting, patients ([2]; 100 mg (N = 4), CTCAE Grade ≥3): 0
- TEAE Anaemia, patients [2, 4]: 1
- TEAE Aspartate aminotransferase increased, patients [2, 4]: 1
- TEAE Bilirubin conjugated increased, patients [2, 4]: 2
- TEAE Blood bilirubin increased, patients [2, 4]: 2
- TEAE Blood bilirubin unconjugated increased, patients [2, 4]: 1
- TEAE Blood creatinine increased, patients [2, 4]: 1
- TEAE Fatigue, patients [2, 4]: 1
- TEAE Haemoglobin decreased, patients [2, 4]: 3
- TEAE Headache, patients [2, 4]: 1
- TEAE Lipase increased, patients [2, 4]: 1
- TEAE Pain, patients [2, 4]: 1
- TEAE Platelet count decreased, patients [2, 4]: 1
- TEAE Proteinuria, patients [2, 4]: 2
- TEAE Vomiting, patients [2, 4]: 2
- TEAE Anaemia, patients ([2]; 200 mg (N = 5), CTCAE Grade ≥3): 0
- TEAE Aspartate aminotransferase increased, patients ([2]; 200 mg (N = 5), CTCAE Grade ≥3): 0
- TEAE Bilirubin conjugated increased, patients ([2]; 200 mg (N = 5), CTCAE Grade ≥3): 1
- TEAE Blood bilirubin increased, patients ([2]; 200 mg (N = 5), CTCAE Grade ≥3): 0
- TEAE Blood bilirubin unconjugated increased, patients ([2]; 200 mg (N = 5), CTCAE Grade ≥3): 0
- TEAE Blood creatinine increased, patients ([2]; 200 mg (N = 5), CTCAE Grade ≥3): 0
- TEAE Fatigue, patients ([2]; 200 mg (N = 5), CTCAE Grade ≥3): 0
- TEAE Haemoglobin decreased, patients ([2]; 200 mg (N = 5), CTCAE Grade ≥3): 0
- TEAE Headache, patients ([2]; 200 mg (N = 5), CTCAE Grade ≥3): 0
- TEAE Lipase increased, patients ([2]; 200 mg (N = 5), CTCAE Grade ≥3): 0
- TEAE Pain, patients ([2]; 200 mg (N = 5), CTCAE Grade ≥3): 0
- TEAE Platelet count decreased, patients ([2]; 200 mg (N = 5), CTCAE Grade ≥3): 0
- TEAE Proteinuria, patients ([2]; 200 mg (N = 5), CTCAE Grade ≥3): 0
- TEAE Vomiting, patients ([2]; 200 mg (N = 5), CTCAE Grade ≥3): 0
- dose limiting toxicities [2, 5]: no dose limiting toxicities observed
- tolerability [2, 5]: well tolerated
- TEAE Anaemia, patients [2, 6]: 4
- TEAE Aspartate aminotransferase increased, patients [2, 6]: 2
- TEAE Bilirubin conjugated increased, patients [2, 6]: 2
- TEAE Blood bilirubin increased, patients [2, 6]: 3
- TEAE Blood bilirubin unconjugated increased, patients [2, 6]: 2
- TEAE Blood creatinine increased, patients [2, 6]: 2
- TEAE Fatigue, patients [2, 6]: 2
- TEAE Haemoglobin decreased, patients [2, 6]: 4
- TEAE Headache, patients [2, 6]: 4
- TEAE Lipase increased, patients [2, 6]: 3
- TEAE Pain, patients [2, 6]: 2
- TEAE Platelet count decreased, patients [2, 6]: 3
- TEAE Proteinuria, patients [2, 6]: 3
- TEAE Vomiting, patients [2, 6]: 3
- TEAE Anaemia, patients ([2]; Total (N = 14), CTCAE Grade ≥3): 0
- TEAE Aspartate aminotransferase increased, patients ([2]; Total (N = 14), CTCAE Grade ≥3): 0
- TEAE Bilirubin conjugated increased, patients ([2]; Total (N = 14), CTCAE Grade ≥3): 1
- TEAE Blood bilirubin increased, patients ([2]; Total (N = 14), CTCAE Grade ≥3): 0
- TEAE Blood bilirubin unconjugated increased, patients ([2]; Total (N = 14), CTCAE Grade ≥3): 0
- TEAE Blood creatinine increased, patients ([2]; Total (N = 14), CTCAE Grade ≥3): 0
- TEAE Fatigue, patients ([2]; Total (N = 14), CTCAE Grade ≥3): 0
- TEAE Haemoglobin decreased, patients ([2]; Total (N = 14), CTCAE Grade ≥3): 0
- TEAE Headache, patients ([2]; Total (N = 14), CTCAE Grade ≥3): 0
- TEAE Lipase increased, patients ([2]; Total (N = 14), CTCAE Grade ≥3): 0
- TEAE Pain, patients ([2]; Total (N = 14), CTCAE Grade ≥3): 0
- TEAE Platelet count decreased, patients ([2]; Total (N = 14), CTCAE Grade ≥3): 0
- TEAE Proteinuria, patients ([2]; Total (N = 14), CTCAE Grade ≥3): 0
- TEAE Vomiting, patients ([2]; Total (N = 14), CTCAE Grade ≥3): 0
